Reference: patent US11485736B2 (KSQ Therapeutics, Inc., priority 2018, dated 2022)
Read-outs that look alike come from different tables or passages of the source.

How the values were obtained:
[1] = ADME solubility determination at pH 2.0 and pH 7.4; type: physicochemical; conditions: aqueous buffer, thermodynamic from solid, LC-MS/MS
Method in brief: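 Dried residues of 10 mM DMSO stocks were shaken in PBS pH 7.4 or pH 2.0 for 24 hours at 25° C. and 1,100 rpm. After centrifugation, supernatants were quantified by LC-MS/MS against a standard of known concentration, applying a dilution factor.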

[2] = Liver microsomal stability, human liver microsomes; type: in vitro ADME; conditions: 1 μM compound, NADPH, read-out: t1/2 (min) in HLM
Method in brief: (§1)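 Compound (1 μM final) was incubated with prewarmed human or rat liver microsomes (1 mg/mL in 100 mM phosphate master mix) plus NADPH; aliquots at 0.5–30 minutes were quenched in cold acetonitrile and quantified by LC-MS/MS. Half-life came from the ln(% remaining) versus time slope, converted to CLint (μL/min/mg prot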

[3] = Liver microsomal stability, rat liver microsomes; type: in vitro ADME; conditions: 1 μM compound, NADPH, read-out: t1/2 (min) in RLM
Method in brief: as §1

[4] = PBS pH 2.0, shaken at 25° C. for 24 hours, read-out: Solubility at pH 2.0
[5] = PBS pH 7.4, shaken at 25° C. for 24 hours, read-out: Solubility at pH 7.4

| solubility at 24 h [1, 4] [µM] | solubility at 24 h [1, 5] [µM] | half-life at 1 μM [2] [min] | half-life at 1 μM [3] [min] | solubility at 24 h ([1]; phosphate buffered saline, PBS pH 2.0, shaken at 25° C. for 24 hours, read-out: Solubility at pH 2.0) [µM] | solubility at 24 h ([1]; phosphate buffered saline, PBS pH 7.4, shaken at 25° C. for 24 hours, read-out: Solubility at pH 7.4) [µM] | Compound |
| --- | --- | --- | --- | --- | --- | --- |
| < 10 | < 10 | > 25 | > 25 | – | – | COc1ncnc(C2CC2)c1-c1ncc2cnn(Cc3ccc(-c4nc(C(F)(F)F)cn4C(C)C)cc3)c2n1 [Example 143] |
| < 10 | < 10 | > 25 | < 25 | – | – | COc1ncnc(C2CC2)c1-c1ncc2cnn(Cc3ccc(-c4nc(C(F)(F)F)cn4C4CCC4)cc3)c2n1 [Example 144] |
| < 10 | < 10 | < 25 | < 25 | – | – | CCn1cc(C#N)nc1-c1ccc(Cn2ncc3cnc(-c4c(OC)ncnc4C4CC4)nc32)cc1 [Example 148, 2-(4-((6-(4-cyclopropyl-6-methoxypyrimidin-5-yl)-1H-pyrazolo[3,4-d]pyrimidin-1-yl)methyl)phenyl)-1-ethyl-1H-imidazole-4-carbonitrile] |
| > 10 | > 10 | < 25 | < 25 | – | – | COCC(C)n1cc(C(F)(F)F)nc1-c1ccc(Cn2ncc3cnc(-c4c(OC)ncnc4C4CC4)nc32)cc1 (centres unmarked) [Example 150, 6-(4-cyclopropyl-6-methoxypyrimidin-5-yl)-1-(4-(1-(1-methoxypropan-2-yl)-4-(trifluoromethyl)-1H-imidazol-2-yl)benzyl)-1H-pyrazolo[3,4-d]pyrimidine] |
| > 10 | > 10 | > 25 | > 25 | – | – | COc1ncnc(C2CC2)c1-c1ncc2cnn(Cc3ccc(-c4nc(C(F)(F)F)cn4C(C)CF)cc3)c2n1 (centres unmarked) [Example 151, 6-(4-cyclopropyl-6-methoxypyrimidin-5-yl)-1-(4-(1-(1-fluoropropan-2-yl)-4-(trifluoromethyl)-1H-imidazol-2-yl)benzyl)-1H-pyrazolo[3,4-d]pyrimidine] |
| < 10 | < 10 | > 25 | > 25 | – | – | COc1ncnc(C2CC2)c1-c1ncc2cnn(Cc3ccc(-c4nc(C(F)(F)F)cn4C4CC4)cc3)c2n1 [Example 154, 1-(4-(1-Cyclopropyl-4-(trifluoromethyl)-1H-imidazol-2-yl)benzyl)-6-(4-cyclopropyl-6-methoxypyrimidin-5-yl)-1H-pyrazolo[3,4-d]pyrimidine] |
| < 10 | < 10 | > 25 | > 25 | – | – | COc1ncnc(C2CC2)c1-c1ncc2cnn(Cc3ccc(-c4nc(C(F)(F)F)c(Br)n4C)cc3)c2n1 [Example 163] |
| > 10 | < 10 | < 25 | < 25 | – | – | CCn1c(-c2ccc(Cn3ncc4cnc(-c5c(OC)ncnc5C5CC5)nc43)cc2)nc(C(F)(F)F)c1OC [Example 164, 6-(4-cyclopropyl-6-methoxypyrimidin-5-yl)-1-(4-(1-ethyl-5-methoxy-4-(trifluoromethyl)-1H-imidazol-2-yl)benzyl)-1H-pyrazolo[3,4-d]pyrimidine] |
| > 10 | < 10 | < 25 | < 25 | – | – | CCn1c(-c2ccc(Cn3ncc4cnc(-c5c(OC)ncnc5C5CC5)nc43)cc2)nc(C(F)(F)F)c1C [Example 167, 6-(4-cyclopropyl-6-methoxypyrimidin-5-yl)-1-(4-(1-ethyl-5-methyl-4-(trifluoromethyl)-1H-imidazol-2-yl)benzyl)-1H-pyrazolo[3,4-d]pyrimidine] |
| < 10 | < 10 | > 25 | < 25 | – | – | CCn1cc(C(F)(F)F)nc1-c1ccc(Cn2nc(C#N)c3cnc(-c4c(OC)ncnc4C4CC4)nc32)cc1 [Example 172, 6-(4-cyclopropyl-6-methoxypyrimidin-5-yl)-1-(4-(1-ethyl-4-(trifluoromethyl)-1H-imidazol-2-yl)benzyl)-1H-pyrazolo[3,4-d]pyrimidine-3-carbonitrile] |

The next lines start with the molecule.

| Compound | solubility at 24 h [1, 4] [µM] | solubility at 24 h [1, 5] [µM] | half-life at 1 μM [2] [min] | half-life at 1 μM [3] [min] | solubility at 24 h ([1]; phosphate buffered saline, PBS pH 2.0, shaken at 25° C. for 24 hours, read-out: Solubility at pH 2.0) [µM] | solubility at 24 h ([1]; phosphate buffered saline, PBS pH 7.4, shaken at 25° C. for 24 hours, read-out: Solubility at pH 7.4) [µM] |
| --- | --- | --- | --- | --- | --- | --- |
| COc1ncnc(C2CC2)c1-c1ncc2cnn(Cc3ccc(-c4nc(C(F)(F)F)cn4C4COC4)cc3)c2n1 [Example 145] | > 10 | > 10 | > 25 | < 25 | – | – |
| COc1ncnc(C2CC2)c1-c1ncc2cnn(Cc3ccc(-c4nc(C(F)(F)F)cn4C4CCOC4)cc3)c2n1 (centres unmarked) [Example 146] | > 10 | > 10 | < 25 | < 25 | – | – |
| CC(C)c1ccccc1-c1ncc2cnn(Cc3ccc(-c4nc(C(F)(F)F)cn4C4CN(C)C4)cc3)c2n1 [Example 152, 6-(2-Isopropylphenyl)-1-(4-(1-(1-methylazetidin-3-yl)-4-(trifluoromethyl)-1H-imidazol-2-yl)benzyl)-1H-pyrazolo[3,4-d]pyrimidine] | > 10 | > 10 | < 25 | < 25 | – | – |
| COc1ncnc(C2CC2)c1-c1ncc2cnn(Cc3ccc(-c4nc(C(F)(F)F)cn4C4CN(C)C4)cc3)c2n1 [Example 153] | – | – | < 25 | < 25 | > 10 | > 10 |
| Cn1cc(C(F)(F)F)nc1-c1ccc(Cn2ncc3cnc(-c4c(OS(=O)(=O)C(F)(F)F)ncnc4C4CC4)nc32)cc1 [Example 160, 6-Cyclopropyl-5-(1-(4-(1-methyl-4-(trifluoromethyl)-1H-imidazol-2-yl)benzyl)-1H-pyrazolo[3,4-d]pyrimidin-6-yl)pyrimidin-4-yl trifluoromethanesulfonate] | < 10 | < 10 | > 25 | > 25 | – | – |
| COc1ncnc(C2CC2)c1-c1ncc2cnn(Cc3ccc(-c4nc(C(F)(F)F)c(Br)n4C(C)C)cc3)c2n1 [Example 162] | < 10 | < 10 | > 25 | > 25 | – | – |
| COc1ncnc(C2CC2)c1-c1ncc2cnn(Cc3ccc(-c4nc(C(F)(F)F)c(OC)n4C)cc3)c2n1 [Example 165] | < 10 | < 10 | > 25 | > 25 | – | – |
| COc1ncnc(C2CC2)c1-c1ncc2cnn(Cc3ccc(-c4nc(C(F)(F)F)c(OC)n4C(C)C)cc3)c2n1 [Example 166] | < 10 | < 10 | < 25 | < 25 | – | – |
| COc1ncnc(C2CC2)c1-c1ncc2cnn([C@@H](C)c3ccc(-c4nc(C(F)(F)F)cn4CCF)cc3)c2n1 [Example 169] | > 10 | < 10 | > 25 | > 25 | – | – |
| CCn1cc(C(F)(F)F)nc1-c1ccc(Cn2nc(Br)c3cnc(-c4c(OC)ncnc4C4CC4)nc32)cc1 [Example 170, 3-bromo-6-(4-cyclopropyl-6-methoxypyrimidin-5-yl)-1-(4-(1-ethyl-4-(trifluoromethyl)-1H-imidazol-2-yl)benzyl)-1H-pyrazolo[3,4-d]pyrimidine] | < 10 | < 10 | > 25 | < 25 | – | – |
